Consider 16 compounds from patent publication US20250228239A1, “MOLECULES HAVING PESTICIDAL UTILITY, AND INTERMEDIATES, COMPOSITIONS, AND PROCESSES, RELATED THERETO” (priority 2024, published 2025).

Holding throughout (assay type): in vivo
Series [1] deals with Cabbage Looper (Trichoplusia ni, TRIPNI). In words: Bioassays on Cabbage Looper (CL), 128-well diet tray assay. Conditions: Trichoplusia ni. Put shortly: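 Second-instar larvae (1–5 per well) placed on artificial diet surface-treated with 50 μg/cm^2 test molecule applied in 90:10 acetone-water and dried. Held at 25° C., 14:10 light-dark, for five to seven days. Percent mortality scored per well and averaged over eight wells.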

In series [2] the test system is Beet Armyworm (Spodoptera exigua, LAPHEG). In words: Bioassays on Beet Armyworm (BAW), 128-well diet tray assay. The following applies: Spodoptera exigua. Put shortly:
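Test molecule was dissolved in 90:10 acetone-water and applied at 50 μg/cm^2 onto artificial diet in eight wells, then dried. Second instar larvae, one to five per well, were added, and trays were kept vented at 25° C. with a 14:10 photoperiod for five to seven days before mortality was recorded.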

The test system of series [3] is Yellow Fever Mosquito (Aedes aegypti, AEDSAE). The following applies: for YFM rating: Table ABC / ABC-DP rating. The method in brief: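 Compounds from 4000 ppm DMSO stocks were diluted in 90:10 water/acetone and dispensed into wells, then infested with about 1-day-old larvae in liver-powder water. Covered plates were held at room temperature for 3 days and each well was scored for mortality against a rating scale; six replicate plates per compound.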

Where [4] appears, read: Cabbage Looper, Table ABC / ABC-DP rating, read-out: CL rating.
Setting [5] is: Beet Armyworm, Table ABC / ABC-DP rating, read-out: BAW rating.
Setting [6] is: Cabbage Looper, rating class, read-out: CL.
Where [7] appears, read: Beet Armyworm, rating class, read-out: BAW.
The mark [8] stands for this setting: Yellow Fever Mosquito, rating class.
The mark [9] stands for this setting: Table ABC: Biological Results, species CL, read-out: CL.
The mark [10] stands for this setting: Table ABC: Biological Results, species BAW, read-out: BAW.
[11] abbreviates: Table ABC: Biological Results, species YFM.

Where two headings read alike, the source gives them in different places.

For the compound `O=C(NCC(F)(F)F)c1cc(NC(=O)[C@H]2[C@@H](c3cc(F)c(F)c(Br)c3)C2(Cl)Cl)ccc1Cl` (relative stereo) [F2004, cis-5-(3-(3-Bromo-4,5-difluorophenyl)-2,2-dichlorocyclopropane-1-carboxamido)-2-chloro-N-(2,2,2-trifluoroethyl)benzamide], the pest or weed control at 50 µg/cm2 in series [1] (setting [4]) and in series [2] (setting [5]) was 50 to 100% each time. Further, the YFM rating result in series [3] (Yellow Fever Mosquito) is on record as “A (80–100)”.
As to `CCOC(C)C(=O)Nc1c(F)ccc(NC(=O)c2cc(NC(=O)[C@H]3[C@H](c4ccc(Cl)c(Cl)c4)C3(Cl)Cl)ccc2Cl)c1F` (stereo partly drawn) [F1604, 2-Chloro-5-((1R,3R)-2,2-dichloro-3-(3,4-dichlorophenyl)cyclopropane-1-carboxamido)-N-(3-(2-ethoxypropanamido)-2,4-difluorophenyl)benzamide], the pest or weed control at 50 µg/cm2 in series [1] (setting [6]) and in series [2] (setting [7]) was 50 to 100% each time. The YFM result in series [3] (setting [8]) was “A (80–100)”.
In the case of `O=C(COC(F)(F)F)Nc1c(F)ccc(NC(=O)c2cc(NC(=O)[C@H]3[C@H](c4cc(C(F)(F)F)cc(C(F)(F)F)c4)C3(Cl)Cl)ccc2Cl)c1F` (relative stereo) [F1804, trans-5-(3-(3,5-bis(Trifluoromethyl)phenyl)-2,2-dichlorocyclopropane-1-carboxamido)-2-chloro-N-(2,4-difluoro-3-(2-(trifluoromethoxy)acetamido)phenyl)benzamide], the pest or weed control at 50 µg/cm2 in series [1] (setting [4]) and in series [2] (setting [5]) was 50 to 100% in each case. Besides, in series [3] (Yellow Fever Mosquito), the YFM rating entry is given as “A (80–100)”.
As for `CCN(C(=O)COC(F)(F)F)c1c(F)ccc(NC(=O)c2cc(NC(=O)[C@H]3[C@H](c4ccc(F)c(C(F)(F)F)c4)C3(Cl)Cl)ccc2Cl)c1F` [F1789, 2-Chloro-5-((1R,3R)-2,2-dichloro-3-(4-fluoro-3-(trifluoromethyl)phenyl)cyclopropane-1-carboxamido)-N-(3-(N-ethyl-2-(trifluoromethoxy)acetamido)-2,4-difluorophenyl)benzamide], the pest or weed control at 50 µg/cm2 in series [1] (setting [4]) and in series [2] (setting [5]) was 50 to 100% in each case. Moreover, in series [3] (Yellow Fever Mosquito), the YFM rating result is recorded as “A (80–100)”.
On to `Nc1c(F)ccc(NC(=O)c2cc(NC(=O)[C@H]3[C@H](c4cc(C(F)(F)F)cc(C(F)(F)F)c4)C3(Cl)Cl)ccc2Cl)c1F` (relative stereo) [F1791, trans-N-(3-Amino-2,4-difluorophenyl)-5-(3-(3,5-bis(trifluoromethyl)phenyl)-2,2-dichlorocyclopropane-1-carboxamido)-2-chlorobenzamide], for which the pest or weed control at 50 µg/cm2 in series [1] (setting [4]) and in series [2] (setting [5]) was 50 to 100% throughout. The YFM rating result in series [3] (Yellow Fever Mosquito) was “A (80–100)”.
In the case of `O=C(Nc1ccccc1)c1cc(NC(=O)[C@H]2[C@H](c3ccc(F)c(C(F)(F)F)c3)C2(Cl)Cl)c(F)cc1Cl` [F1723, 2-Chloro-5-((1R,3R)-2,2-dichloro-3-(4-fluoro-3-(trifluoromethyl)phenyl)cyclopropane-1-carboxamido)-4-fluoro-N-phenylbenzamide], the pest or weed control at 50 µg/cm2 in series [1] (setting [6]) and in series [2] (setting [7]) was 50 to 100% throughout. Further, the YFM entry in series [3] (setting [8]) is “A (80–100)”.
Consider `CCOC(C)C(=O)Nc1c(F)ccc(N(C)C(=O)c2cc(NC(=O)[C@H]3[C@H](c4ccc(Cl)c(Cl)c4)C3(Cl)Cl)ccc2Cl)c1F` (stereo partly drawn) [F1794, 2-Chloro-5-((1R,3R)-2,2-dichloro-3-(3,4-dichlorophenyl)cyclopropane-1-carboxamido)-N-(3-(2-ethoxypropanamido)-2,4-difluorophenyl)-N-methylbenzamide], for which the pest or weed control at 50 µg/cm2 in series [1] (setting [4]) and in series [2] (setting [5]) was 50 to 100% in each case. Moreover, the YFM rating result in series [3] (Yellow Fever Mosquito) is recorded as “B (More than 0 – Less than 80)”.
In the case of `O=C(Nc1ccc(F)c(NC(=O)C(F)(F)Br)c1F)c1cc(NC(=O)[C@H]2[C@H](c3ccc(F)c(C(F)(F)F)c3)C2(Cl)Cl)ccc1Cl` [F1276, N-(3-(2-Bromo-2,2-difluoroacetamido)-2,4-difluorophenyl)-2-chloro-5-((1R,3R)-2,2-dichloro-3-(4-fluoro-3-(trifluoromethyl)phenyl)cyclopropane-1-carboxamido)benzamide], the pest or weed control at 50 µg/cm2 in series [1] (setting [9]) and in series [2] (setting [10]) was 50 to 100% each time. The YFM result in series [3] (setting [11]) is “A (80–100)”.
For `CC(=O)Nc1c(F)ccc(NC(=O)c2cc(NC(=O)[C@H]3[C@H](c4cc(Cl)cc(Cl)c4)C3(Cl)Cl)cc(F)c2F)c1F` [F1439, N-(3-Acetamido-2,4-difluorophenyl)-5-((1R,3R)-2,2-dichloro-3-(3,5-dichlorophenyl)cyclopropane-1-carboxamido)-2,3-difluorobenzamide], the pest or weed control at 50 µg/cm2 in series [1] (setting [6]) and in series [2] (setting [7]) was 50 to 100% in each case. For the same compound, in series [3] (setting [8]), the YFM entry is listed as “A (80–100)”.
In the case of `Cc1cc(NC(=O)C(F)(F)F)ccc1NC(=O)c1cc(NC(=O)[C@H]2[C@H](c3ccc(Cl)c(Cl)c3)C2(Cl)Cl)ccc1Cl` (relative stereo) [F1061, trans-2-Chloro-5-(2,2-dichloro-3-(3,4-dichlorophenyl)cyclopropane-1-carboxamido)-N-(2-methyl-4-(2,2,2-trifluoroacetamido)phenyl)benzamide], the pest or weed control at 50 µg/cm2 in series [1] (setting [9]) and in series [2] (setting [10]) was 50 to 100% throughout. Besides, the YFM entry in series [3] (setting [11]) is “A (80–100)”.
For the compound `O=C(NCC(F)(F)C(F)(F)F)c1c(Cl)ccc(NC(=O)[C@H]2[C@H](c3ccc(F)c(Cl)c3)C2(Cl)Cl)c1Cl` (relative stereo) [F2005, trans-2,6-Dichloro-3-(2,2-dichloro-3-(3-chloro-4-fluorophenyl)cyclopropane-1-carboxamido)-N-(2,2,3,3,3-pentafluoropropyl)benzamide], the pest or weed control at 50 µg/cm2 in series [1] (setting [4]) and in series [2] (setting [5]) was 50 to 100% each time. Besides, the YFM rating entry in series [3] (Yellow Fever Mosquito) is “A (80–100)”.
`COCCNc1ccc(NC(=O)c2cc(NC(=O)[C@H]3[C@H](c4cc(Cl)cc(Cl)c4)C3(Cl)Cl)ccc2Cl)c(C)c1` (relative stereo) [F1162, trans-2-Chloro-5-(2,2-dichloro-3-(3,5-dichlorophenyl)cyclopropane-1-carboxamido)-N-(4-((2-methoxyethyl)amino)-2-methylphenyl)benzamide]: the pest or weed control at 50 µg/cm2 in series [1] (setting [9]) and in series [2] (setting [10]) was 50 to 100% in each case. Moreover, the YFM result in series [3] (setting [11]) is “A (80–100)”.
For `O=C(CCC(F)(OC(F)(F)F)C(F)(F)F)Nc1c(F)ccc(NC(=O)c2cc(NC(=O)[C@H]3[C@H](c4ccc(F)c(C(F)(F)F)c4)C3(Cl)Cl)ccc2Cl)c1F` (stereo partly drawn) [F1858, 2-Chloro-5-((1R,3R)-2,2-dichloro-3-(4-fluoro-3-(trifluoromethyl)phenyl)cyclopropane-1-carboxamido)-N-(2,4-difluoro-3-(4,5,5,5-tetrafluoro-4-(trifluoromethoxy)pentanamido)phenyl)benzamide], the pest or weed control at 50 µg/cm2 in series [1] (setting [4]) and in series [2] (setting [5]) was 50 to 100% throughout. Moreover, in series [3] (Yellow Fever Mosquito), the YFM rating entry is “A (80–100)”.
Turning to `O=C(NCCCCl)c1cc(NC(=O)[C@H]2[C@H](c3ccc(F)c(Cl)c3)C2(Cl)Cl)cc(F)c1Cl` (relative stereo) [F2036, trans-2-Chloro-N-(3-chloropropyl)-5-(2,2-dichloro-3-(3-chloro-4-fluorophenyl)cyclopropane-1-carboxamido)-3-fluorobenzamide], the pest or weed control at 50 µg/cm2 in series [1] (setting [4]) and in series [2] (setting [5]) was 50 to 100% throughout. Moreover, the YFM rating entry in series [3] (Yellow Fever Mosquito) is reported as “A (80–100)”.
The mortality is the share of the test organisms that died. In the case of `N#Cc1ccccc1NNC(=O)c1cc(NC(=O)[C@H]2[C@H](c3cc(Cl)cc(Cl)c3)C2(Cl)Cl)ccc1Cl` (relative stereo) [F2576, trans-2,2-Dichloro-N-(4-chloro-3-(2-(2-cyanophenyl)hydrazine-1-carbonyl)phenyl)-3-(3,5-dichlorophenyl)cyclopropane-1-carboxamide], the mortality at 50 µg/cm2 in series [1] (168 h, second instar larvae, 50 μg/cm^2 of test molecule on artificial diet, 25° C., five to seven days, average of eight wells, read-out: CL % Control (or Mortality) rating) lay in the range of 50 to 100%; in series [2] (168 h, second instar larvae, 50 μg/cm^2 of test molecule on artificial diet, 25° C., five to seven days, average of eight wells, read-out: BAW % Control (or Mortality) rating), 50 to 100%. Further, the pest or weed control at 50 µg/cm2 in series [1] (setting [4]) and in series [2] (setting [5]) was 50 to 100% each time. Besides, in series [3] (Yellow Fever Mosquito), the YFM rating result is reported as “A (80–100)”. Also, the “YFM % Control (or Mortality) rating” value in series [3] (about 1 day-old larvae, 4000 ppm master solution diluted with 90:10 water/acetone, 15 μL per well plus 220 μL larval mixture, 3 days, mortality) is given as “A (80–100)”.
For the compound `O=C(NNc1ncccc1Cl)c1cc(NC(=O)[C@H]2[C@H](c3cc(Cl)cc(Cl)c3)C2(Cl)Cl)ccc1Cl` (relative stereo) [F2505, trans-2,2-Dichloro-N-(4-chloro-3-(2-(3-chloropyridin-2-yl)hydrazine-1-carbonyl)phenyl)-3-(3,5-dichlorophenyl)cyclopropane-1-carboxamide], the pest or weed control at 50 µg/cm2 in series [1] (setting [4]) and in series [2] (setting [5]) was 50 to 100% throughout. The YFM rating entry in series [3] (Yellow Fever Mosquito) is listed as “A (80–100)”.
